# Values of other authors, collected in patent US20120264119A1, “NEW METHOD FOR DECONTAMINATION AND PROCESSING OF CLINICAL SPECIMENS FROM A PATIENT” (priority 2011, published 2012).
# Test system: Mycobacteria
# Conditions: sputum processing with sodium hydroxide alone or with N-acetyl-cysteine
smiles,measurement,value
"[Na+].[OH-] [NaOH, sodium hydroxide]",viable mycobacteria destroyed,more than 80%
